{"source": "PubChem BioAssay AID1996"}
{"settings": "buffer; pH 7.4; 200.0 µM", "units": {"solubility kinetic": "µg/mL"}}
{"smiles": "Cc1cc(C)nc(Nc2ccc(Br)cc2C(=O)O)n1.Cl", "solubility kinetic": "> 53.8"}
{"smiles": "COc1ccc(C)cc1S(=O)(=O)N1CC(C)OC(C)C1", "note": "(stereo not given)", "solubility kinetic": "> 44.9"}
{"smiles": "COc1ccc2nc(NCc3cccnc3)sc2c1", "solubility kinetic": "> 40.7"}
{"smiles": "Cc1ccc(C2CC3CCC(C2)N3Cc2ccccc2F)cc1", "note": "(stereo not given)", "solubility kinetic": 26.8}
{"smiles": "CCN(CC)S(=O)(=O)c1cc(NC(=O)CCc2c(C)noc2C)ccc1C", "solubility kinetic": "> 59"}
{"smiles": "Cc1ccc(C(C)C)c(OCCCn2ccnc2C)c1.O=C(O)C(=O)O", "solubility kinetic": 51.2}
{"smiles": "CCN(c1cccc(C)c1)S(=O)(=O)c1csc(C(N)=O)c1", "solubility kinetic": "> 48.7"}
{"smiles": "COc1ccc(N2CCOCC2)c(NC(=O)c2cccs2)c1", "solubility kinetic": 47.7}
{"smiles": "COc1ccc(OC)c(CCNC(=O)CCc2cn(C)c3ccccc23)c1", "solubility kinetic": 30.6}
{"smiles": "Cn1c(NC2CCCCC2)c(N=O)c(=O)n(C)c1=O", "solubility kinetic": "> 39.9"}
{"smiles": "O=C(c1ccc(F)cc1)c1ccc(-c2ccc(F)cc2)nc1", "solubility kinetic": 0.9}
{"smiles": "Nc1nc(-c2cc3ccccc3o2)cs1", "solubility kinetic": 3.3}
{"smiles": "C=C(C)Cn1cnc2c(oc3nc4c(cc32)CCCC4)c1=O", "solubility kinetic": 2.5}
{"smiles": "Cc1ccc(S(=O)(=O)N(C)C(C)CCc2ccco2)cc1", "note": "(stereo not given)", "solubility kinetic": 26.2}
{"smiles": "CC(C)N(Cc1ccccc1)C(=O)c1cccs1", "solubility kinetic": "> 38.9"}
{"smiles": "Cc1ccc(C(=O)C2CCN(C(=S)NCC3CCCO3)CC2)cc1", "note": "(stereo not given)", "solubility kinetic": 46.7}
{"smiles": "CCCCn1c(O)c(C(C)=NCCc2c[nH]c3ccccc23)c(=O)[nH]c1=O", "solubility kinetic": 0.4}
{"smiles": "CC1CCN(S(=O)(=O)c2cccc3cccnc23)CC1", "solubility kinetic": 41.8}
{"smiles": "OC(CCN1CCC2(CC1)OCCO2)C(F)(F)F", "note": "(stereo not given)", "solubility kinetic": "> 40.4"}
{"smiles": "CNS(=O)(=O)c1ccc(NS(=O)(=O)c2ccccc2F)cc1", "solubility kinetic": 51}
{"smiles": "COc1ccc(N(CC(=O)N2CCOCC2)S(C)(=O)=O)cc1OC", "solubility kinetic": "> 53.8"}
{"smiles": "COc1ccc(C(=O)O)cc1S(=O)(=O)N1CCCc2ccccc21", "solubility kinetic": "> 52.1"}
{"smiles": "O=C(Nc1nccs1)C(c1ccccc1)N1CCCC1", "note": "(stereo not given)", "solubility kinetic": "> 43.1"}
{"smiles": "CCN(CC)Cc1cc(O)c(CN(CC)CC)cc1O", "solubility kinetic": "> 42.1"}
{"smiles": "Cc1ccccc1C(=O)NC1CCN(C(=O)NC2CCCCC2)CC1", "solubility kinetic": 6.5}
{"smiles": "CCOC(=O)C1(Cc2ccccc2)CCCN(C(=O)C=C(C)C)C1", "note": "(stereo not given)", "solubility kinetic": 46.8}
{"smiles": "CCc1ccc(NC(=O)Nc2cnccn2)cc1", "solubility kinetic": 9.9}
{"smiles": "O=C(CN1C(=O)NC(CCc2ccccc2)C1=O)N1CCCCCC1", "note": "(stereo not given)", "solubility kinetic": "> 51.5"}
{"smiles": "CC(=O)c1c(O)c2ccccc2n(Cc2ccccc2)c1=O", "solubility kinetic": 11.8}
{"smiles": "O=C(COc1ncnc2cc(Cl)ccc12)c1ccccc1", "solubility kinetic": 3.2}
{"smiles": "Brc1cccc(C=Nc2cccc3ncccc23)c1", "solubility kinetic": 12.2}
{"smiles": "Cc1ccc(-c2cc(NC(=O)c3ccccc3)on2)cc1", "solubility kinetic": "< 0.3"}
{"smiles": "Cc1ccc(NC(=O)c2cnccn2)cc1C", "solubility kinetic": 31.7}
{"smiles": "O=C(CCC(=O)NCc1ccccc1)NCc1ccccc1", "solubility kinetic": 12.7}
{"smiles": "N=c1oc2cc(O)ccc2cc1C(=O)Nc1ccc(F)cc1", "solubility kinetic": 1.5}
{"smiles": "CCc1sc(C(=O)NCc2ccco2)cc1Br", "solubility kinetic": 25.9}
{"smiles": "CC(C)(C)C(=O)Nc1ccc(/C=C/C(=O)c2ccco2)cc1", "solubility kinetic": 28.9}
{"smiles": "O=[N+]([O-])c1cc(CN2CCC(O)CC2)ccc1Cl", "solubility kinetic": 38.9}
{"smiles": "CN(C(=O)c1ccc(Br)o1)C1CCCCC1", "solubility kinetic": 32.2}
{"smiles": "CCOc1cc(-c2nc3n(c(=O)c2C#N)CCS3)ccc1O", "solubility kinetic": 5.7}
{"smiles": "Cc1ccc(C(=O)Nc2cccc(NC(=O)CN3CCCCC3)c2)cc1", "solubility kinetic": 41.4}
{"smiles": "CC(COc1ccccc1)N(CCCl)Cc1ccccc1.Cl", "note": "(stereo not given)", "solubility kinetic": 45.8}
{"smiles": "Cc1ccc(C(=O)N2CCN(Cc3ccccc3)CC2)o1", "solubility kinetic": "> 42.7"}
{"smiles": "O=C(COC(=O)/C=C/c1ccco1)Nc1ccccc1", "solubility kinetic": 13.5}
{"smiles": "O=C(Cc1c(F)cccc1Cl)Nc1nc2ccccc2s1", "solubility kinetic": 0.8}
{"smiles": "O=C1CCc2cc(S(=O)(=O)Nc3ccccc3)cc3c2N1CC3", "solubility kinetic": "> 49.3"}
{"smiles": "Cc1ccc(NC(=O)c2cc3c(=O)oc4ccc(C)cc4c3s2)nc1", "solubility kinetic": "< 0.4"}
{"smiles": "CNC(=O)/C(C#N)=C/c1c(N2CCN(C)CC2)nc2c(C)cccn2c1=O", "solubility kinetic": "> 55"}
{"smiles": "Cc1cc(NCc2ccc(F)cc2)nc2cc(Cl)ccc12", "solubility kinetic": 0.8}
{"smiles": "Cc1cc(C)c2[nH]c(C)c(CN3CCCCCC3)c(=O)c2c1", "solubility kinetic": "> 44.8"}
{"smiles": "O=S(=O)(NCc1ccco1)c1cnc(Cl)c(Cl)c1", "solubility kinetic": "> 46.1"}
{"smiles": "O=C1CC(Cc2ccc(Cl)cc2)C(=O)N1c1cc(Cl)ccn1", "note": "(stereo not given)", "solubility kinetic": 29.4}
{"smiles": "CCOc1ncccc1C(=O)OCC(=O)c1ccc(OC)c(OC)c1", "solubility kinetic": "> 51.8"}
{"smiles": "Cc1ccc(NS(=O)(=O)c2cccc(C(=O)Nc3cccnc3)c2)c(C)c1", "solubility kinetic": 6}
{"smiles": "CSc1ncccc1C(=O)OCc1ccc([N+](=O)[O-])cc1", "solubility kinetic": 0.9}
{"smiles": "COCc1cc(C)nc(SCc2ccc([N+](=O)[O-])cc2)c1C#N", "solubility kinetic": 5.2}
{"smiles": "CCN(CC(=O)Nc1ccc(OC(F)F)cc1)C1CCCCC1", "solubility kinetic": 33.1}
{"smiles": "Nc1ccc(C(=O)NCC2(c3ccccc3)CCCC2)cc1", "solubility kinetic": 17.8}
{"smiles": "CCOc1cc(Br)c(C(C)NC(=O)c2cccnc2)cc1OCC", "note": "(stereo not given)", "solubility kinetic": "> 59"}
{"smiles": "COc1ccc(CC(=O)NC2CC(C)(C)NC(C)(C)C2)cc1OC.Cl", "solubility kinetic": "> 55.6"}
{"smiles": "CCN(CC)C(=O)CCS(=O)(=O)c1cccc2nonc12", "solubility kinetic": 45.2}
{"smiles": "Cc1nc(-c2ccccc2OC(F)(F)F)[nH]c(=O)c1Cl", "solubility kinetic": 43.2}
{"smiles": "COc1ccccc1C1CCN(Cc2ccccc2Cl)CC1", "solubility kinetic": 3.6}
{"smiles": "Cc1ccc(C)c(OCCNc2ncccc2[N+](=O)[O-])c1", "solubility kinetic": 0.3}
{"smiles": "O=C(O)c1ccc(Nc2ccc([N+](=O)[O-])c3nonc23)cc1", "solubility kinetic": "> 45"}
{"smiles": "COc1ccccc1/C=C(\\C)C(=O)c1c(C)cc(C)[nH]c1=O", "solubility kinetic": "> 44.6"}
{"smiles": "O=C(CN1C(=O)NC2(CCCC2)C1=O)Nc1cccc(Cl)c1", "solubility kinetic": "> 48.3"}
{"smiles": "Cc1ccc(S(=O)(=O)Nc2ccccc2C(O)c2ccccc2)cc1", "note": "(stereo not given)", "solubility kinetic": 6.1}
{"smiles": "O=C(NCCCn1ccnc1)/C(=C/c1cccnc1)NC(=O)c1ccco1", "solubility kinetic": "> 54.8"}
{"smiles": "O=C(CCc1ccccc1)N1CCN(c2ccc(F)cc2)CC1", "solubility kinetic": "> 46.9"}
{"smiles": "O=C(Nc1nc2ccsc2c(=O)s1)c1ccc(F)cc1Cl", "solubility kinetic": "< 0.4"}
{"smiles": "O=C(COC(=O)c1ccc([N+](=O)[O-])cc1)NC1CCCC1", "solubility kinetic": 21.2}
{"smiles": "Cc1cc(S(=O)(=O)c2ccc([N+](=O)[O-])cn2)ccc1Br", "solubility kinetic": 1.7}
{"smiles": "Cc1noc(NS(=O)(=O)c2ccc(NC(=O)c3ccc(F)cc3)cc2)c1C", "solubility kinetic": "> 58.4"}
{"smiles": "CC1(C)Oc2ccc(C(=O)Nc3ccccc3)cc2N(CC#N)C1=O", "solubility kinetic": "> 50.3"}
{"smiles": "Cc1ccc(-c2nc(-c3ccncc3)no2)c(C)c1", "solubility kinetic": 0.5}
{"smiles": "CCC(C)N1CCN(S(=O)(=O)Cc2ccccc2)CC1", "note": "(stereo not given)", "solubility kinetic": "> 44.5"}
{"smiles": "Cc1nc(Cl)sc1C(=O)Nc1cccc(Cl)c1", "solubility kinetic": 34.8}
{"smiles": "Nc1ccc(C(=O)O)cc1", "solubility kinetic": "> 20.6"}
{"smiles": "CC(=O)Nc1ccc(NCc2ccc(C)s2)cc1", "solubility kinetic": "> 39.1"}
{"smiles": "Cc1ccc(NC(=S)NCCc2ccc(Cl)cc2)c(C)c1", "solubility kinetic": "< 0.3"}
{"smiles": "O=S(=O)(Nc1ccc(O)c2ccccc12)c1cccs1", "solubility kinetic": 24.9}
{"smiles": "COc1ccc(NC(=O)CCCC2CCCCC2)c(OC)c1", "solubility kinetic": "< 0.7"}
{"smiles": "COc1ccccc1NC(=O)c1cnc(SC)nc1", "solubility kinetic": "> 41.3"}
{"smiles": "COc1ccc(N2Cc3ccc(OC)c(OC)c3C2=O)cc1", "solubility kinetic": "> 44.9"}
{"smiles": "O=C(Nc1ccc(OCc2ccccc2)cc1)Nc1cccnc1", "solubility kinetic": 1.2}
{"smiles": "CCOC(=O)c1ccc(NC(C)=O)c([N+](=O)[O-])c1", "solubility kinetic": "> 37.8"}
{"smiles": "CCNc1nc(NCC)nc(NC(N)=S)n1", "solubility kinetic": 9}
{"smiles": "Clc1ccc2nc(-c3ccc(Cl)nc3)[nH]c2c1", "solubility kinetic": 13.5}
{"smiles": "CC(=O)c1c(C)[nH]c(C(=O)COC(=O)CCNS(=O)(=O)c2ccc(C)c(C)c2)c1C", "solubility kinetic": 11}
{"smiles": "CC(=O)N1CCN=C1SCc1cccc(F)c1", "solubility kinetic": 36.5}
{"smiles": "C=CCN(C(=O)COC(=O)c1cc[n+]([O-])cc1)c1nc(-c2ccccc2)cs1", "solubility kinetic": 6.1}
{"smiles": "COc1ccccc1CCn1c(N)cc(=O)[nH]c1=O", "solubility kinetic": "> 39.2"}
{"smiles": "CN(C(=O)COC(=O)Cn1cnc2ccccc21)C1CCCCC1", "solubility kinetic": 45}
{"smiles": "Cn1cc(-c2ccccc2C(N)=O)c(=O)c2cc(Cl)ccc21", "solubility kinetic": 46.3}
{"smiles": "Cc1cc(=O)[nH]c(SCC(=O)Nc2nc3ccccc3s2)n1", "solubility kinetic": "> 49.9"}
{"smiles": "Cc1cc(C(=O)N2CCCc3ccccc32)ccc1[N+](=O)[O-]", "solubility kinetic": 34.7}
{"smiles": "O=S(=O)(c1ccc(F)c(F)c1)N1CCN(c2ccccn2)CC1", "solubility kinetic": 1.5}
{"smiles": "C/C(=N\\N=C(N)N)c1ccccc1", "solubility kinetic": "> 26.4"}
{"smiles": "CNC(=O)CN1C(=O)NC2(CCc3ccccc3C2)C1=O", "note": "(stereo not given)", "solubility kinetic": "> 43.1"}
{"smiles": "Cc1cccc(OCCCn2c(=O)oc3ccc(C)cc32)c1", "solubility kinetic": 3.3}
{"smiles": "O=C(CNS(=O)(=O)c1ccc(Cl)c(C(F)(F)F)c1)NC1CCCCC1", "solubility kinetic": 12.6}
{"smiles": "COc1ccc(C(=O)C2CCCN(CCO)C2)c(C)c1", "note": "(stereo not given)", "solubility kinetic": 30.3}
{"smiles": "CC(C)N(Cc1nc(COc2ccccc2)no1)Cc1nccn1C", "solubility kinetic": 48.2}
{"smiles": "O=C(O)CC1(CC(=O)Nc2ccc(C(F)(F)F)cc2)CCCC1", "solubility kinetic": "> 49.4"}
{"smiles": "CCOC(=O)Nc1ccc2nc3n(c(=O)c2c1)CCCCC3", "solubility kinetic": 9.1}
{"smiles": "CN(c1ccccc1)S(=O)(=O)c1ccc2ccccc2c1", "solubility kinetic": 2.4}
{"smiles": "Cc1ccc(S(=O)(=O)N2CCOCC2)cc1C(=O)OCC(=O)NCCc1ccc(F)cc1", "solubility kinetic": 60.2}
{"smiles": "O=C(NC(=O)N1CCCCCC1)c1ccc(Cl)cc1", "solubility kinetic": "> 42.1"}
{"smiles": "COc1ccccc1N1CCN(C(=O)Cc2ccc(Cl)cc2)CC1", "solubility kinetic": 50.6}
{"smiles": "O=C(CCc1ccccc1)Oc1ccccc1[N+](=O)[O-]", "solubility kinetic": 5.2}
{"smiles": "Cc1nc(N)c(CC(Br)CBr)c(Cl)n1", "note": "(stereo not given)", "solubility kinetic": 49.1}
{"smiles": "Cc1cc(=O)[nH]c(=O)n1Cc1ccccc1", "solubility kinetic": 19.2}
{"smiles": "COc1ccc(NC(=O)Nc2ccc(Br)c(C)c2)cc1", "solubility kinetic": "< 0.4"}
{"smiles": "COc1ccc2c(c1)C(C)CC(C)(C)N2C(=O)Nc1ccccc1", "note": "(stereo not given)", "solubility kinetic": 13.4}
{"smiles": "CCN(C(=O)CSc1ccc2ccccc2n1)C1CCCCC1", "solubility kinetic": 14.6}
{"smiles": "COCCN1C(=O)NC(=O)/C(=C\\c2ccc(F)cc2)C1=O", "solubility kinetic": 33.5}
{"smiles": "C=CCC1(/C=N/O)CCOC(C)(C)C1", "note": "(stereo not given)", "solubility kinetic": "> 29.6"}
{"smiles": "CC(C)(C)C(=O)Nc1ccc(-c2cnco2)cc1", "solubility kinetic": "> 36.6"}
{"smiles": "CCS(=O)(=O)N1CCC(C(=O)Oc2ccc(Cl)cc2)CC1", "solubility kinetic": 9.9}
